In ChEMBL document CHEMBL4177735, “Design, synthesis and pharmacological evaluation of new acyl sulfonamides as potent and selective Bcl-2 inhibitors” (Bioorg Med Chem, 2018):

Tests used:
[1] = target: Apoptosis regulator Bcl-2 (Homo sapiens, UniProt P10415); test: Displacement of Bax-derived peptide from Bcl-2 (unknown origin) by fluorescence polarization assay
Bcl-2-like protein 1 = Bcl-2-like protein 1 (Homo sapiens, UniProt Q07817); test: Displacement of Bad-derived peptide from Bcl-XL (unknown origin) by fluorescence polarization assay
Bcl-2-like protein 1, sequence (Q07817 whole entry): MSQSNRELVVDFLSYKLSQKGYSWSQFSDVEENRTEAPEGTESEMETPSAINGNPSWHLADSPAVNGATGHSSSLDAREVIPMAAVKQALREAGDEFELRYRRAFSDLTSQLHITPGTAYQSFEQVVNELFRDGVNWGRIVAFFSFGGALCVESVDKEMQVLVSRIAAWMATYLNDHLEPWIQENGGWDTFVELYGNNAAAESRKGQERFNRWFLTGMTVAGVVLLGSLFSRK

Homo sapiens = organism: Homo sapiens; test: Selectivity factor, ratio of IC50 for Bad-derived peptide from Bcl-XL (unknown origin) to IC50 for displacement of Bax-derived peptide from Bcl-2 (unknown origin)

Apoptosis regulator Bcl-2, sequence (P10415 whole entry): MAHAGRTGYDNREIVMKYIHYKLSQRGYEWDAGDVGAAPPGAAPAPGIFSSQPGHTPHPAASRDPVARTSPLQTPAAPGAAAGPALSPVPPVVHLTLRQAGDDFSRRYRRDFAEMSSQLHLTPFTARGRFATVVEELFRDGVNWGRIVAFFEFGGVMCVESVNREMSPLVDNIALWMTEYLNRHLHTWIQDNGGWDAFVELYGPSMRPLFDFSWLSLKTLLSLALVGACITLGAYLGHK

SMILES | IC50 [1] [nM] | IC50 (Bcl-2-like protein 1) [nM] | Ratio IC50 (Homo sapiens)
CC1(C)CCC(c2ccc(Cl)cc2)=C(CN2CCc3cc(C(=O)NS(=O)(=O)c4ccc(N[C@H](CCN5CCOCC5)CSc5ccccc5)c(S(=O)(=O)C(F)(F)F)c4)ccc3C2)C1 | 12.6 | 14.6 | 1.15
CC1(C)CCC(c2ccc(Cl)cc2)=C(CN2CCc3sc(C(=O)NS(=O)(=O)c4ccc(N[C@H](CCN5CCOCC5)CSc5ccccc5)c(S(=O)(=O)C(F)(F)F)c4)cc3C2)C1 | 57.9 | 26.6 | 0.46
CC1(C)CCC(c2ccc(Cl)cc2)=C(CNC2(Cn3cnc4cc(C(=O)NS(=O)(=O)c5ccc(N[C@H](CCN6CCOCC6)CSc6ccccc6)c(S(=O)(=O)C(F)(F)F)c5)ccc43)CC2)C1 | 108 | 29.3 | 0.27
CC1(C)CCC(c2ccc(Cl)cc2)=C(CNC2(Cn3cnc4ccc(C(=O)NS(=O)(=O)c5ccc(N[C@H](CCN6CCOCC6)CSc6ccccc6)c(S(=O)(=O)C(F)(F)F)c5)cc43)CC2)C1 | > 1000 | > 1000 | –
CC1(C)CCC(c2ccc(Cl)cc2)=C(CN2CCc3nc(C(=O)NS(=O)(=O)c4ccc(N[C@H](CCN5CCOCC5)CSc5ccccc5)c(S(=O)(=O)C(F)(F)F)c4)sc3C2)C1 | 38.1 | 13.2 | 0.35
CC1(C)CCC(c2ccc(Cl)cc2)=C(CN2CCN(c3ccc(C(=O)NS(C)(=O)=O)cc3)CC2)C1 | 495 | > 1000 | > 2.02
Cn1ccc(S(=O)(=O)NC(=O)c2ccc(N3CCN(CC4=C(c5ccc(Cl)cc5)CCC(C)(C)C4)CC3)cc2)n1 | 67.4 | > 1000 | > 14.8
CN1CCN(S(=O)(=O)NC(=O)c2ccc(N3CCN(CC4=C(c5ccc(Cl)cc5)CCC(C)(C)C4)CC3)cc2)CC1 | 168 | > 1000 | > 5.93

The next lines start with the values.

IC50 [1] [nM] | IC50 (Bcl-2-like protein 1) [nM] | Ratio IC50 (Homo sapiens) | SMILES
65.1 | 218 | 3.34 | CN(C)c1ccc(S(=O)(=O)NC(=O)c2ccc(N3CCN(CC4=C(c5ccc(Cl)cc5)CCC(C)(C)C4)CC3)cc2)cc1S(=O)(=O)C(F)(F)F
68.2 | 59.3 | 0.87 | CC1(C)CCC(c2ccc(Cl)cc2)=C(CN2CCN(c3ccc(C(=O)NS(=O)(=O)c4ccc(N[C@@H](CC5CC5)C(=O)N5CCOCC5)c(S(=O)(=O)C(F)(F)F)c4)cc3)CC2)C1
46 | 116 | 2.53 | CN(CCO)c1ccc(S(=O)(=O)NC(=O)c2ccc(N3CCN(CC4=C(c5ccc(Cl)cc5)CCC(C)(C)C4)CC3)cc2)cc1S(=O)(=O)C(F)(F)F
40.7 | 55.3 | 1.36 | CC1(C)CCC(c2ccc(Cl)cc2)=C(CN2CCN(c3ccc(C(=O)NS(=O)(=O)c4ccc(NC5(CN6CCOCC6)CC5)c(S(=O)(=O)C(F)(F)F)c4)cc3)CC2)C1
17.3 | 105 | 6.06 | CC1(C)CCC(c2ccc(Cl)cc2)=C(CN2CCN(c3ccc(C(=O)NS(=O)(=O)c4ccc(OCC5(CN6CC(F)(F)C6)COC5)c(S(=O)(=O)C(F)(F)F)c4)cc3)CC2)C1
193 | 25.6 | 0.13 | CC1(C)CCC(c2ccc(Cl)cc2)=C(CN2CCc3ccc(C(=O)NS(=O)(=O)c4ccc(N[C@H](CCN5CCOCC5)CSc5ccccc5)c(S(=O)(=O)C(F)(F)F)c4)cc3CC2)C1
20.7 | 33.5 | 1.62 | CC1(C)CCC(c2ccc(Cl)cc2)=C(CN2CCN(c3ccc(C(=O)NS(=O)(=O)c4ccc(N[C@@H](CC5CC5)CN5CCOCC5)c(S(=O)(=O)C(F)(F)F)c4)cc3)CC2)C1
14.5 | 49.3 | 3.4 | CC1(C)CCC(c2ccc(Cl)cc2)=C(CN2CCN(c3ccc(C(=O)NS(=O)(=O)c4ccc(OCC5(CN6CCOCC6)COC5)c(S(=O)(=O)C(F)(F)F)c4)cc3)CC2)C1
46.6 | 162 | 3.48 | CC1(C)CCC(c2ccc(Cl)cc2)=C(CN2CCN(c3ccc(C(=O)NS(=O)(=O)c4ccc(N5CC(F)(F)C5)c(S(=O)(=O)C(F)(F)F)c4)cc3)CC2)C1
34.8 | 342 | 9.83 | CC1(C)CCC(c2ccc(Cl)cc2)=C(CN2CCN(c3ccc(C(=O)NS(=O)(=O)c4ccc(NC5(CN6CC(F)(F)C6)CC5)c(S(=O)(=O)C(F)(F)F)c4)cc3)CC2)C1
